Test results reported in PMC4237514, “Novel amino-β-lactam derivatives as potent cholesterol absorption inhibitors” (European Journal of Medicinal Chemistry, 2014).

Target: T1, human NPC1L1 (Homo sapiens, UniProt Q9UHC9)
T1 construct: expressed in transfected cells
T1 sequence (Q9UHC9 22-1359): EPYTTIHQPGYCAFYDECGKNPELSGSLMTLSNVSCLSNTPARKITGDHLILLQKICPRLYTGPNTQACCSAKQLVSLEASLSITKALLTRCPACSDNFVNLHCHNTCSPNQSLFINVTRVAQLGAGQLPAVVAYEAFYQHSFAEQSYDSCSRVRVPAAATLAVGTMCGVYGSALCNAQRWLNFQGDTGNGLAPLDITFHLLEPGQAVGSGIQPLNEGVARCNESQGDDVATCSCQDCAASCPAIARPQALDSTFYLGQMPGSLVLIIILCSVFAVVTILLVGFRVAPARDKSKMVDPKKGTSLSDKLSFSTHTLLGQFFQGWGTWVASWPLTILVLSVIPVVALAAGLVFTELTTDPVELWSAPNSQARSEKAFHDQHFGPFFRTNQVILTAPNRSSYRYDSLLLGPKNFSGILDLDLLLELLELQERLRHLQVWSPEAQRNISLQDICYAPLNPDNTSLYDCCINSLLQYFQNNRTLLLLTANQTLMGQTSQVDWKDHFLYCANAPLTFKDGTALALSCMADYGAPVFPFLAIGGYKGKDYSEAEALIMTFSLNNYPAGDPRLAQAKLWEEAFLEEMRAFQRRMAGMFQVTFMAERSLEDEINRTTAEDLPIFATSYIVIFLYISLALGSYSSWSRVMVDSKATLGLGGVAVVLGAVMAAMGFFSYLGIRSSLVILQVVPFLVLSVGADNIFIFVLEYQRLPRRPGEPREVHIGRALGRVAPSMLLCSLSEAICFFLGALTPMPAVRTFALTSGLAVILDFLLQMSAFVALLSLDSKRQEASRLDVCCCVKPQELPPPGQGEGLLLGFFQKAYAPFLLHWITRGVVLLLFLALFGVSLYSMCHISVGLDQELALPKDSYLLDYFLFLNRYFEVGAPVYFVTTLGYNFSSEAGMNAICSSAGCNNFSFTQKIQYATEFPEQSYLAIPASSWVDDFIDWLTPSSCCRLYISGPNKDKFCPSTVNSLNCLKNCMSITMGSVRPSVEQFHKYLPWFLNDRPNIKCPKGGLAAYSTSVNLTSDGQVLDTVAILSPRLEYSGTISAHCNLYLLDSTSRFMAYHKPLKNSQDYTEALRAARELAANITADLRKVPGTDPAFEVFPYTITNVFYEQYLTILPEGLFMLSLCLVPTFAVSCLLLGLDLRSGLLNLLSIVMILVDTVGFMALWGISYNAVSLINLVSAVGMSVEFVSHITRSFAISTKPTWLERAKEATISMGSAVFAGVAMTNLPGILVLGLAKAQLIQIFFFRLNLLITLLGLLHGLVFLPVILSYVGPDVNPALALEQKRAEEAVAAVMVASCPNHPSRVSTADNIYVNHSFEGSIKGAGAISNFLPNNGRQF
Test: In vitro [3H]cholesterol uptake assay in hNPC1L1/MDCKII cells
Type: cell-based
Settings: 1 h, read-out: IC50, cholesterol uptake inhibition
Experimental: Medium A contained DMEM plus 100 units/mL penicillin and 100 μg/mL streptomycin supplemented with 5% lipoprotein-deficient serum (density > 1.21 g/mL, prepared from FCS by ultracentrifugation). Cholesterol Replenishing Medium (Medium B) was prepared according to the modified method reported by Field et al.. In brief, 0.25 mM oleic acid, 50 μM free cholesterol, 10 μM compactin, 50 μM mevalonate, 5 mM Na-taurocholate (Sigma–Aldrich, Germany), and [^3H]cholesterol (0.18 μCi/mL medium, [1,2–3H(N)] cholesterol, 1 mCi/mL (ARC Inc., USA)) in Medium A were mixed and sonicated. Following the micellar formation, compounds 1, 5, 6, 5/6 (70:30), and 6/5 (85:15) (73 mM stock solution in DMSO) were added to Medium B and vortexed to obtain the final concentrations (10, 30, 60, 90, 120, 150, 200 μM).
MDCKII wildtype and hNPC1L1/MDCKII cells were seeded in 24-well plates at a density of 5 × 10^5 cells/mL medium (500 μL medium/well) in Medium A 24 h before the treatment. Cells were washed once with PBS and incubated in Medium B (500 μL medium/well) containing micelles and tested compounds in indicated concentrations for 1 h. Following the incubation, the medium was removed and cells were washed three times with ice-cold 0.2% free fatty acid-free BSA. Cells were lysed and radioactivity in the lysate (100 μL) was determined by liquid scintillation counting. Protein concentrations of the lysates were determined with the DC Protein Assay (Bio-Rad, USA). The results were calculated as cpm/mg protein and expressed as percentage of inhibition compared to untreated cells. Each concentration was tested in duplicate in three independent experiments.

O=C1[C@H](NCC(O)c2ccc(F)cc2)[C@@H](c2ccc(O)cc2)N1c1ccc(F)cc1 (stereo partly drawn) [6/5 (85:15), (3R,4R)-3-[(2S/R)-2-(4-fluorophenyl)-2-hydroxyethylamino]-1-(4-fluorophenyl)-4-(4-hydroxyphenyl)azetidin-2-one]
IC50: 71 µM
